From ChEMBL document CHEMBL1781971, “Discovery of 5-(arenethynyl) hetero-monocyclic derivatives as potent inhibitors of BCR-ABL including the T315I gatekeeper mutant” (Bioorg Med Chem Lett, 2011)

Key:
Rattus norvegicus [1] = test: AUC in rat at 5 mg/kg, iv; type: ADME, organism-based, Plasma; design: dose 5 mg/kg, route intravenous; conditions: in vivo
[2] = Cmax in rat at 5 mg/kg, iv; type: ADME, organism-based; design: dose 5 mg/kg, route intravenous; conditions: in vivo
[3] = Plasma concentration in mouse after 6 hrs at 30 mg/kg, po; type: ADME, organism-based; design: dose 30 mg/kg, route oral
Rattus norvegicus [4] = test: AUC in rat at 15 mg/kg, po; type: ADME, organism-based, Plasma; design: dose 15 mg/kg, route oral; conditions: in vivo
[5] = Half life in rat at 5 mg/kg, iv; type: ADME, organism-based; design: dose 5 mg/kg, route intravenous; conditions: in vivo
cells [6] = conditions: Mus musculus, BaF3
Description: Antiproliferative activity against BCR-ABL-negative parental mouse BA/F3 cells

[7] = Clearance in rat at 5 mg/kg, iv; type: ADME, organism-based; design: dose 5 mg/kg, route intravenous; conditions: in vivo
[8] = Cmax in rat at 15 mg/kg, po; type: ADME, organism-based; design: dose 15 mg/kg, route oral; conditions: in vivo
cells [9] = conditions: Mus musculus, BaF3; remark: listed apart in the source
[10] = Volume of distribution in rat at 5 mg/kg, iv; type: ADME, organism-based; design: dose 5 mg/kg, route intravenous; conditions: in vivo
[11] = biological target: Tyrosine-protein kinase ABL1 (Homo sapiens, UniProt P00519)
[12] = Half life in rat at 15 mg/kg, po; type: ADME, organism-based; design: dose 15 mg/kg, route oral; conditions: in vivo
cells [13] = conditions: Mus musculus, BaF3; remark: listed apart in the source
Description: Antiproliferative activity against mouse BA/F3 cells expressing wild type BCR-ABL

[14] = Oral bioavailability in rat at 15 mg/kg; type: ADME, organism-based; conditions: in vivo
[15] = biological target: Tyrosine-protein kinase ABL1 (Homo sapiens, UniProt P00519, T315I)

Row | SMILES | AUC (Rattus norvegicus [1]) [h/ng/mL] | Cmax [2] [ng/mL] | concentration at 6 h [3] [ng/mL] | AUC (Rattus norvegicus [4]) [h/ng/mL] | half-life [5] [h] | IC50 (cells [6]) [nM] | clearance [7] [mL/min/kg] | Cmax [8] [ng/mL] | IC50 (cells [9]) [nM] | Vd [10] [L/kg] | IC50 [11] [nM] | half-life [12] [h] | IC50 (cells [13]) [nM] | bioavailability [14] [%] | IC50 [15] [nM]
1 | Cc1ccc(C(=O)Nc2ccc(CN3CCN(CCO)CC3)c(C(F)(F)F)c2)cc1C#Cc1cnc(C(N)=O)n1C | 2320 | 598 | 333 | 962 | 3.5 | 1320 | 35.8 | 61.4 | 5.8 | 11 | 3.6 | 6.3 | 0.61 | 14 | 36
2 | Cc1ccc(C(=O)Nc2ccc(CN3CCN(C)CC3)c(C(F)(F)F)c2)cc1C#Cc1cccnc1 | – | – | – | – | – | 2040 | – | – | 45.5 | – | 40.3 | – | 4.1 | – | 123
3 | Cc1ccc(C(=O)Nc2ccc(CN3CCN(C)CC3)c(C(F)(F)F)c2)cc1C#Cc1cncnc1 | 5308 | 822 | 771 | 13559 | 6.2 | 2820 | 15.7 | 900 | 65 | 8.5 | 62.7 | 10 | 3.1 | 85 | 435
4 | CC(=O)Nc1ccc(C#Cc2cc(C(=O)Nc3ccc(CN4CCN(C)CC4)c(C(F)(F)F)c3)ccc2C)cn1 | – | – | – | – | – | 1790 | – | – | 9.6 | – | 18 | – | 2.2 | – | 121
5 | CCC(=O)Nc1ccc(C#Cc2cc(C(=O)Nc3ccc(CN4CCN(C)CC4)c(C(F)(F)F)c3)ccc2C)cn1 | – | – | – | – | – | 1660 | – | – | 13.4 | – | 28.6 | – | 2.5 | – | 104
6 | Cc1ccc(C(=O)Nc2ccc(CN3CCN(C)CC3)c(C(F)(F)F)c2)cc1C#Cc1ccc(C(N)=O)nc1 | – | – | – | – | – | 1020 | – | – | 18 | – | 48.7 | – | 2.6 | – | 321
7 | Cc1ccc(C(=O)Nc2ccc(CN3CCN(C)CC3)c(C(F)(F)F)c2)cc1C#Cc1cnc(NC2CC2)nc1 | – | – | – | – | – | 607 | – | – | 519 | – | 49.7 | – | 195 | – | 457
8 | Cc1ccc(C(=O)Nc2ccc(CN3CCN(C)CC3)c(C(F)(F)F)c2)cc1C#Cc1cnc[nH]1 | – | – | – | – | – | 6550 | – | – | 5740 | – | 1000 | – | 730 | – | 3720
9 | Cc1ccc(C(=O)Nc2ccc(CN3CCN(C)CC3)c(C(F)(F)F)c2)cc1C#Cc1cncn1C | – | – | – | – | – | 5650 | – | – | 709 | – | 129 | – | 43 | – | 550
